Measured values: paper PMC4685925, “Exploring architectures displaying multimeric presentations of a trihydroxypiperidine iminosugar” (Beilstein Journal of Organic Chemistry, 2015)

Molecular target: T1, amyloglucosidase (Aspergillus niger, UniProt P69328)
T1 construct: gene GLAA
Assay: commercial glycosidase inhibition assay ([…] inhibition at […]; IC50 determined)
Assay type: biochemical

T1 sequence (P69328 25-640): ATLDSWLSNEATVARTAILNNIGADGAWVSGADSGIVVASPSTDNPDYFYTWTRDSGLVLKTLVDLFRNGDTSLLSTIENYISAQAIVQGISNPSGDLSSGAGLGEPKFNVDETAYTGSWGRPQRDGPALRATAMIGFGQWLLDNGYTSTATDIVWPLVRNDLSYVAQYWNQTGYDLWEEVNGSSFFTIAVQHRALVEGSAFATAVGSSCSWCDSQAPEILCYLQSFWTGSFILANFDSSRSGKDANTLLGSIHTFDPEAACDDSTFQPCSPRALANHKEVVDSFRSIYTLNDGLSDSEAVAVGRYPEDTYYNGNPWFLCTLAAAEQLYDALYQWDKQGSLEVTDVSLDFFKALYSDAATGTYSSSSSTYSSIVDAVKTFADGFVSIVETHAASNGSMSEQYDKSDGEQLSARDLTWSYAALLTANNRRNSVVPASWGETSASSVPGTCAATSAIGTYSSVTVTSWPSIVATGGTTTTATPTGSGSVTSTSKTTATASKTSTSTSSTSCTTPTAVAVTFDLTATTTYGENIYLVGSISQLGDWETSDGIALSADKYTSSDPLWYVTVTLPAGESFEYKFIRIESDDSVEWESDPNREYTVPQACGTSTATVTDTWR

**Q.** For NCc1cn(CCCN2C[C@@H](O)C(O)[C@H](O)C2)nn1 [compound 15, Deprotected monovalent iminosugar 15], which IC50 is on record?
**A.** The IC50 was 1100 µM.
